Source: the NIST ThermoML archive (doi:10.1016/j.jct.2012.08.022)
± gives the expanded uncertainty stated by the source.

How the values were obtained:
[1] = activity coefficient (dimensionless); of the first substance listed, at infinite dilution; xn = mol fraction of the nth substance listed; conditions: Liquid, Chromatography, x1 = 0
[2] = 101.33 kPa, Liquid, vibrating tube

activity coefficient ([1]; 313 K) | activity coefficient ([1]; 333 K) | activity coefficient ([1]; 353 K) | activity coefficient ([1]; 373 K) | activity coefficient ([1]; 393 K) | activity coefficient ([1]; 413 K) | Structure (SMILES) | further results
4.76 ± 0.32 | 5.61 ± 0.38 | 7.03 ± 0.48 | 8.44 ± 0.58 | 10 ± 0.7 | 11.6 ± 0.8 | COCCOC [1,2-dimethoxyethane] + CCCCn1cc[n+](C)c1.O=S(=O)([O-])O | 
3.42 ± 0.23 | 3.49 ± 0.24 | 3.56 ± 0.24 | 3.89 ± 0.26 | 3.89 ± 0.26 | 3.77 ± 0.26 | COCCOC [1,2-dimethoxyethane] + Cn1cc[n+](C[Si](C)(C)C)c1.[Cl-] | 
2.72 ± 0.19 | 2.78 ± 0.19 | 2.99 ± 0.2 | 3.36 ± 0.23 | 3.8 ± 0.26 | 4.41 ± 0.3 | C1COCCO1 [1,4-dioxane] + CCCCn1cc[n+](C)c1.O=S(=O)([O-])O | 
2.14 ± 0.15 | 1.95 ± 0.13 | 2.07 ± 0.14 | 2.13 ± 0.14 | 2.16 ± 0.15 | 2.28 ± 0.16 | C1COCCO1 [1,4-dioxane] + Cn1cc[n+](C[Si](C)(C)C)c1.[Cl-] | 
 |  |  |  |  |  | CCCCn1cc[n+](C)c1.O=S(=O)([O-])O [1-butyl-3-methylimidazolium hydrogen sulfate] | mass density ([2]; 303 K): 1275.9 ± 0.4 kg/m3; mass density ([2]; 308 K): 1272.5 ± 0.4 kg/m3; mass density ([2]; 313 K): 1269 ± 0.4 kg/m3; mass density ([2]; 318 K): 1266.4 ± 0.4 kg/m3; mass density ([2]; 323 K): 1263.4 ± 0.4 kg/m3; mass density ([2]; 328 K): 1260.4 ± 0.4 kg/m3; mass density ([2]; 333 K): 1257.4 ± 0.4 kg/m3; mass density ([2]; 338 K): 1254.5 ± 0.4 kg/m3; mass density ([2]; 343 K): 1251.5 ± 0.4 kg/m3; mass density ([2]; 348 K): 1248.6 ± 0.4 kg/m3; mass density ([2]; 353 K): 1245.7 ± 0.4 kg/m3; mass density ([2]; 358 K): 1242.8 ± 0.4 kg/m3; mass density ([2]; 363 K): 1240 ± 0.4 kg/m3
 |  |  |  |  |  | Cn1cc[n+](C[Si](C)(C)C)c1.[Cl-] [1-methyl-3-(trimethylsilylmethyl)imidazolium chloride] | mass density ([2]; 313 K): 1055.9 ± 1 kg/m3; mass density ([2]; 318 K): 1053 ± 0.9 kg/m3; mass density ([2]; 323 K): 1050.1 ± 0.9 kg/m3; mass density ([2]; 328 K): 1047.2 ± 0.9 kg/m3; mass density ([2]; 333 K): 1044.1 ± 0.9 kg/m3; mass density ([2]; 338 K): 1040.9 ± 0.9 kg/m3; mass density ([2]; 343 K): 1038.1 ± 0.9 kg/m3; mass density ([2]; 348 K): 1035.3 ± 0.9 kg/m3; mass density ([2]; 353 K): 1032.4 ± 0.9 kg/m3; mass density ([2]; 358 K): 1029.6 ± 0.9 kg/m3; mass density ([2]; 363 K): 1026.8 ± 0.9 kg/m3
1.23 ± 0.08 | 1.31 ± 0.09 | 1.28 ± 0.08 | 1.26 ± 0.08 | 1.24 ± 0.08 | 1.19 ± 0.08 | CC#N [acetonitrile] + CCCCn1cc[n+](C)c1.O=S(=O)([O-])O | 
0.629 ± 0.043 | 0.659 ± 0.045 | 0.695 ± 0.047 | 0.712 ± 0.047 | 0.73 ± 0.048 | 0.756 ± 0.05 | CC#N [acetonitrile] + Cn1cc[n+](C[Si](C)(C)C)c1.[Cl-] | 
5.11 ± 0.35 | 4.95 ± 0.34 | 5.36 ± 0.37 | 5.28 ± 0.36 | 5.49 ± 0.37 | 5.69 ± 0.39 | c1ccccc1 [benzene] + CCCCn1cc[n+](C)c1.O=S(=O)([O-])O | 
2.44 ± 0.17 | 2.3 ± 0.16 | 2.6 ± 0.18 | 2.94 ± 0.2 | 3.85 ± 0.26 | 4.36 ± 0.3 | c1ccccc1 [benzene] + Cn1cc[n+](C[Si](C)(C)C)c1.[Cl-] | 
 | 0.153 ± 0.029 | 0.158 ± 0.029 | 0.163 ± 0.029 |  |  | CCO [ethanol] + Cn1cc[n+](C[Si](C)(C)C)c1.[Cl-] | 
9.02 ± 0.62 | 9.95 ± 0.68 | 11.7 ± 0.8 | 12.8 ± 0.9 | 13.8 ± 0.9 |  | CCOC(C)=O [ethyl acetate] + CCCCn1cc[n+](C)c1.O=S(=O)([O-])O | 
4.4 ± 0.3 | 4.27 ± 0.29 | 5.14 ± 0.35 | 6.96 ± 0.47 | 8.26 ± 0.56 |  | CCOC(C)=O [ethyl acetate] + Cn1cc[n+](C[Si](C)(C)C)c1.[Cl-] | 
 | 0.0373 | 0.0421 | 0.0472 |  |  | CO [methanol] + Cn1cc[n+](C[Si](C)(C)C)c1.[Cl-] | 
 | 0.0747 ± 0.03 | 0.0878 ± 0.03 | 0.102 ± 0.03 |  |  | CCCO [propan-1-ol] + Cn1cc[n+](C[Si](C)(C)C)c1.[Cl-] | 
5.1 ± 0.35 | 5.61 ± 0.38 | 6.6 ± 0.45 | 7.34 ± 0.5 | 8.55 ± 0.58 |  | C1CCOC1 [tetrahydrofuran] + CCCCn1cc[n+](C)c1.O=S(=O)([O-])O | 
3.09 ± 0.21 | 2.93 ± 0.2 | 3.7 ± 0.25 | 4.31 ± 0.29 | 4.79 ± 0.33 |  | C1CCOC1 [tetrahydrofuran] + Cn1cc[n+](C[Si](C)(C)C)c1.[Cl-] | 
0.112 ± 0.03 | 0.153 ± 0.029 | 0.2 ± 0.029 | 0.253 ± 0.03 | 0.301 ± 0.031 | 0.338 ± 0.032 | ClC(Cl)Cl [trichloromethane] + Cn1cc[n+](C[Si](C)(C)C)c1.[Cl-] | 

Structure (SMILES) | activity coefficient ([1]; 313 K) | activity coefficient ([1]; 333 K) | activity coefficient ([1]; 353 K) | activity coefficient ([1]; 373 K) | activity coefficient ([1]; 393 K) | activity coefficient ([1]; 413 K) | further results
C[N+](=O)[O-] [nitromethane] + CCCCn1cc[n+](C)c1.O=S(=O)([O-])O | 0.826 ± 0.053 | 0.771 ± 0.05 | 0.83 ± 0.053 | 0.939 ± 0.059 | 1.08 ± 0.07 | 1.18 ± 0.08 | 
C[N+](=O)[O-] [nitromethane] + Cn1cc[n+](C[Si](C)(C)C)c1.[Cl-] | 0.449 ± 0.036 | 0.442 ± 0.036 | 0.477 ± 0.037 | 0.527 ± 0.039 | 0.559 ± 0.04 | 0.599 ± 0.042 | 
Cc1ccccc1 [toluene] + CCCCn1cc[n+](C)c1.O=S(=O)([O-])O | 8.51 ± 0.58 | 9.22 ± 0.63 | 9.7 ± 0.66 | 11.1 ± 0.8 | 13 ± 0.9 | 13.9 ± 1 | 
Cc1ccccc1 [toluene] + Cn1cc[n+](C[Si](C)(C)C)c1.[Cl-] | 4.1 ± 0.28 | 3.8 ± 0.26 | 4.07 ± 0.28 | 4.67 ± 0.32 | 5.46 ± 0.37 | 6.21 ± 0.42 | 
